“Also recorded” adds a separate entry of the source.
Each molecule was assayed against protein kinase (assay: HTS ATP-utilizing enzyme assay, off-chip mobility-shift format (Caliper HTS 250)). Conditions: kinase(s) for which the compound exhibits protein kinase inhibitory activity; test compound 10 μM; active = greater than three-sigma from the mean activity of inactive compounds.
Type: biochemical, human
From the text: The following procedures describe the reagent and plate preparation for a HTS of an ATP-utilizing enzyme, such as a protein kinase, run in an off-chip mobility-shift assay format. The following provides an HTS protocol for running a protein kinase HTS screen on a Caliper HTS 250 microfluidics system. The following parameters are dependent on the protein kinase used and can be determined by one skilled in the art as part of a typical assay development process. For example, the peptide substrate used can be identified from the current literature, by screening a peptide library of potential protein kinase substrates, or by other applicable means accepted in the field.
The following table provides typical screen assay parameters appropriate for a Caliper HTS 250 microfluidics system.
The reagents and buffers listed in the following table are generally applicable for developing and running an HTS screen on a human protein kinase using the Caliper HTS 250 system.
The following reagents were prepared using the previously described buffers.
A 2× Master Buffer solution was prepared by combining 200 mL of 1 M HEPES, pH 7.5, 2 mL of 10% Triton X-100, 20 mL of 10% BSA, and 778 mL of H2O.
Assays to determine the kinase inhibitory activity of chemical entities of the present disclosure were performed using a Caliper HTS 250 microfluidics device, Greiner U-bottom assay plates, a Multidrop for transfer of reagents, and Biomek FX (AMNCBM03) software. Initially, 2.4 μL of a 1 mM solution of a test compound in 100% DMSO was added to a well of the Greiner U-bottom plate. A single Greiner U-bottom plate having 24×16 wells could include multiple test compounds. […] Using the Biomek FX, 10 μL of 0.5 M EDTA was added by the span-8 to wells, indicated as 100% Control and 2.4 μL of 100% DMSO was added by the span-8 to wells, indicated as 0% Control. […] The total reaction volume in each well was 25 μL, and the concentration of the test compound was 10 μM. The assay plate was incubated for 2.5 hrs at 20° C. to 22° C. […] The inhibition of the ATP-utilizing enzyme, such as a particular protein kinase, was determined by measuring the ratio of the peptide substrate to phosphorylated product for each well of the assay plate using the Caliper HTS 250 system.
The use of three-sigma statistical limits represents a conservative method for declaring potential hits among targets. The three-sigma activity, as well as the mean population activity, can be different for each target enzyme.

SMILES	Kinase
CCn1c(SCC(=O)N2CCCc3ccccc32)nnc1-c1cc2ccccc2cc1O	CDK2-cyclinA; also recorded: AURORA-A; also recorded: DAPK1
COc1ccc(OCc2nnc(SCC(=O)N3CCCc4ccccc43)n2-c2ccc(C)cc2)cc1	LCK
O=C(CSc1nnc(-c2ccncc2)n1-c1ccc(F)cc1)Nc1nccs1	GSK3-α; also recorded: GSK3-β; also recorded: CDK2-cyclinE
O=C(CSc1nnc(-c2ccncc2)n1-c1ccc(F)cc1)Nc1cccc(O)c1	AURORA-A
CC(Sc1nnc(-c2ccc(O)cc2)n1Cc1ccco1)C(=O)Nc1ccc([N+](=O)[O-])cc1 (stereo not drawn)	LCK
O=C(CSc1nnc(-c2ccccc2O)n1Cc1ccccc1)N(c1ccccc1)c1ccccc1	CDK2-cyclinA; also recorded: AURORA-A
CCn1c(SCC(=O)Nc2nccs2)nnc1-c1ccc(S(=O)(=O)N2CCCC2)cc1	GSK3-β; also recorded: GSK3-α
Cn1c(SCC(=O)Nc2nccs2)nnc1-c1ccc(S(=O)(=O)N2CCOCC2)cc1	GSK3-α; also recorded: GSK3-β
Cc1ccc([N+](=O)[O-])cc1NC(=O)CSc1nnc(-c2ccc([N+](=O)[O-])cc2)n1C	PDGFRR-α
Cc1ccc(NC(=O)CSc2nnc(CNc3cccc(C(F)(F)F)c3)n2-c2ccccc2)cc1	MAPKAPK-2
COc1ccc(-c2nnc(SCC(=O)N3CCOCC3)n2-c2ccccc2)cc1OC	AKT1
CCn1c(SCC(=O)N2CCCC2)nnc1-c1ccc(S(=O)(=O)N2CCCCCC2)cc1	AURORA-A
CCN(CC)C(=O)CSc1nnc(-c2ccc(S(=O)(=O)N3CCCCCC3)cc2)n1CC	AURORA-A
CCn1c(SCC(=O)Nc2cc(C)ccc2OC)nnc1-c1ccc(S(=O)(=O)N2CCCCCC2)cc1	DAPK1
COc1ccc2nc(NC(=O)CSc3nnc(-c4ccc(O)cc4)n3CC3CCCO3)sc2c1 (stereo not drawn)	GSK3-β; also recorded: PDGFRR-α; also recorded: GSK3-α
Cn1c(SCC(=O)Nc2nc3c(s2)CCCC3)nnc1-c1ccc(O)cc1	GSK3-β; also recorded: GSK3-α; also recorded: CDK2-cyclinE
Cc1ccc([N+](=O)[O-])cc1NC(=O)CSc1nnc(-c2ccc(O)cc2)n1C	GSK3-β; also recorded: GSK3-α
Cn1c(SCC(=O)N2CCOCC2)nnc1-c1ccc(O)cc1	AURORA-A

SMILES	Kinase
Cc1ccc(NC(=O)C(C)Sc2nnc(-c3ccc(O)cc3)n2-c2ccccc2)cc1 (stereo not drawn)	HCK
Cc1ccc(NCc2nnc(SCC(N)=O)n2CC2CCCO2)cc1Cl (stereo not drawn)	AURORA-A
CCOc1ccc(NCc2nnc(SCC(=O)N3CCN(C)CC3)n2-c2ccc(C)cc2)cc1	FYN and AURORA-A
Cc1ccc(NC(=O)CSc2nnc(CNc3ccc(F)cc3)n2CC2CCCO2)cc1 (stereo not drawn)	AURORA-A
CC1CCN(C(=O)CSc2nnc(Cc3ccccc3)n2-c2cccc(Cl)c2)CC1	LCK
COc1ccc(-n2c(Cc3ccccc3)nnc2SCC(=O)N2c3ccccc3Sc3ccccc32)cc1	SRC and LCK
O=C(CSc1nnc(Cc2ccccc2)n1C1CCCCC1)Nc1cccc(O)c1	AURORA-A
Sc1nnc(CCc2nc3ccccc3[nH]2)n1-c1cccc(Cl)c1	GSK3-α
CCOc1ccc(NCc2nnc(SCC(=O)Nc3cc(C(F)(F)F)ccc3Cl)n2-c2ccc(OC)cc2)cc1	PAK2 and AURORA-A and FYN
CCn1c(SCC(=O)Nc2sc3c(c2C#N)CCCC3)nnc1-c1ccc(O)cc1	AURORA-A
Cn1c(SCC(=O)Nc2sc3c(c2C#N)CCCC3)nnc1-c1ccc(O)cc1	PRAK and CDK2-cyclinE and DYRK2
Cc1ccc(S(=O)(=O)Nc2ccc(-c3nnc(S)n3C)cc2)cc1	AURORA-A; also recorded: CDK2-cyclinA; also recorded: CHEK2
COc1ccc(-n2c(SC(C)C(=O)Nc3ccc(C(C)=O)cc3)nnc2-c2ccc(O)cc2)cc1 (stereo not drawn)	GSK3-β; also recorded: GSK3-α
CC(=O)c1ccc(NC(=O)CSc2nnc(C)n2-c2ccccc2)cc1	AKT1
CCc1nnc(NC(=O)CSc2nnc(-c3cccc(C)c3)n2CC)s1	LCK
CCOC(=O)c1sc(NC(=O)CSc2nnc(Cn3nnc4ccccc43)n2C)nc1C	GSK3-β
CCOC(=O)c1c(NC(=O)CSc2nnc(CNc3ccc(OC)cc3)n2C)sc(C(C)=O)c1C	AURORA-A and FYN and PDGFRR-α
COC(=O)c1sc(NC(=O)CSc2nnc(-c3ccc(NS(C)(=O)=O)cc3)n2C)nc1C	GSK3-β; also recorded: GSK3-α

Second part, the molecule after the results:

Kinase	SMILES
DAPK1; also recorded: AURORA-A	CCn1c(SCC(=O)N2CCc3ccccc3C2)nnc1-c1cc2ccccc2cc1O
GSK3-β; also recorded: GSK3-α	O=C(CSc1nnc(-c2ccc(O)cc2)n1Cc1ccco1)N1CCCc2ccccc21
FYN and AURORA-A and DAPK1	Cn1c(SCC(=O)N2CCCc3ccccc32)nnc1-c1cc2ccccc2cc1O
FYN	COCCCn1c(C)nnc1SCC(=O)Nc1ccccc1[N+](=O)[O-]
GSK3-β and GSK3-α and MSK2	O=C(CSc1nnc(-c2ccc(O)cc2)n1Cc1ccco1)Nc1nccs1
AURORA-A	O=C(CSc1nnc(-c2ccc(O)cc2)n1Cc1ccco1)N1CCc2ccccc21
GSK3-β and GSK3-α and AKT3	O=C(CSc1nnc(-c2ccncc2)n1Cc1ccco1)Nc1cccc(O)c1
GSK3-α; also recorded: GSK3-β	O=C(CSc1nnc(-c2ccc(O)cc2)n1Cc1ccccc1)N1CCCCC1
CHEK2	O=C(CSc1nnc(CNc2ccc(F)cc2)n1Cc1ccccc1)Nc1cccc(O)c1
c-TAK1	CCn1c(SCC(=O)N(C(C)C)C(C)C)nnc1-c1cc2ccccc2cc1O
AURORA-A; also recorded: CDK2-cyclinE	CCn1c(SCC(=O)Nc2nc3c(s2)CCCC3)nnc1-c1cc2ccccc2cc1O
AURORA-A	CCn1c(SCC(=O)Nc2ccc(C)cc2)nnc1-c1ccc(O)cc1
AURORA-A	Cc1ccc(NC(=O)CSc2nnc(-c3ccccc3O)n2-c2ccc(C)cc2)cc1
AURORA-A	O=C(CSc1nnc(-c2ccccc2O)n1CCc1ccccc1)Nc1nnc(C(F)(F)F)s1
FYN	CNC(=O)CSc1nnc(-c2cc3ccccc3cc2O)n1C
AURORA-A and FYN	Cc1cc(NC(=O)CSc2nnc(-c3cc4ccccc4cc3O)n2C)no1
AURORA-A	Cn1c(SCC(=O)N2c3ccccc3Sc3ccccc32)nnc1-c1cc2ccccc2cc1O
GSK3-β; also recorded: GSK3-α	Cn1c(SCC(=O)Nc2nccs2)nnc1-c1cc2ccccc2cc1O
AURORA-A; also recorded: DYRK2	CCCOc1ccc(CNC(=O)CSc2nnc(-c3ccc(OC)c(OC)c3)n2C)cc1
AURORA-A	COc1ccc(-c2nnc(SCC(=O)Nc3ccccc3O)n2-c2ccccc2)cc1OC

Kinase	SMILES
MAPKAPK-2	Cn1c(SCC(=O)N2CCc3ccccc32)nnc1-c1ccc(N)cc1
GSK3-β; also recorded: GSK3-α	COc1ccc(-n2c(SCC(N)=O)nnc2-c2ccc(O)cc2)cc1
MSK1	O=C(CSc1nnc(-c2ccc(O)cc2)n1CC1CCCO1)NCCc1ccccc1 (stereo not drawn)
CSK	Cn1c(SCC(=O)Nc2cccc(O)c2)nnc1-c1ccco1
AURORA-A	COCCn1c(SCC(=O)Nc2ccccc2F)nnc1-c1cc2ccccc2cc1O
PDGFRR-α	CCOc1cc(NC(=O)c2cccs2)c(OCC)cc1NC(=O)CSc1nnc(-c2ccc(O)cc2)n1C
AURORA-A	Cn1c(SCC(=O)Nc2cccc(O)c2)nnc1-c1ccc(NS(C)(=O)=O)cc1
FYN	COc1ccc(CCNC(=O)CSc2nnc(-c3cc4ccccc4cc3O)n2C)cc1OC
HCK	CCOc1ccc(NC(=O)CSc2nnc(-c3ccc(O)cc3)n2-c2ccccc2)cc1
AURORA-A	COCCn1c(SCC(=O)Nc2ccc3c(c2)OCO3)nnc1-c1cc2ccccc2cc1O
CDK2-cyclinA and CDK5 and CDK2-cyclinE	O=C(CSc1nnc(-c2ccc(O)cc2)n1Cc1ccco1)NCc1ccc2c(c1)OCO2
AURORA-A	COCCn1c(SCC(=O)NCc2ccc3c(c2)OCO3)nnc1-c1cc2ccccc2cc1O
PDGFRR-α and FYN	COc1ccc(NCc2nnc(SCC(=O)NCc3ccco3)n2-c2ccccc2OC)cc1
GSK3-β; also recorded: GSK3-α	O=C(CSc1nnc(-c2ccc(O)cc2)n1-c1ccccc1)NCc1ccco1
GSK3-β; also recorded: GSK3-α	CCOC(=O)c1sc(NC(=O)CSc2nnc(-c3ccc(OC)cc3)n2CCOC)nc1C
LCK	CCOC(=O)c1c(NC(=O)CSc2nnc(-c3ccccc3O)n2-c2ccc(C)cc2)sc(C(C)=O)c1C
AURORA-A	COC(=O)c1ccccc1NC(=O)CSc1nnc(-c2ccccc2O)n1CCc1ccccc1
AURORA-A; also recorded: DAPK1	COCCn1c(SCC(=O)Nc2ccccc2C(=O)OC)nnc1-c1cc2ccccc2cc1O
AURORA-A	COC(=O)c1ccccc1NC(=O)CSc1nnc(CNc2ccc(F)cc2)n1CC1CCCO1 (stereo not drawn)

Reference: patent US20050288347A1, “Certain triazole-based compounds, compositions, and uses thereof” (priority 2004, published 2005)
